These results are taken from patent US10463667B2 (Incyte Corporation, priority 2007, dated 2019).

Data set [1] is described as follows: Intrinsic clearance assay (human liver microsomes). It is filed as in vitro ADME. Conditions: both sexes; 1 μM compound, human liver microsomes 0.5 mg/mL protein, 37° C., 1 mM NADPH; read-out: Human Intrinsic CL (converted). The protocol: Intrinsic Clearance Assay
The disappearance of the test compound was monitored by LC/MS at […] The slope of decline in compound concentration was used to calculate the human intrinsic clearance by employing standard methods reported in the literature.
In general terms: Liver microsomes are a subcellular fraction often used to study metabolism.

For data set [2], the target named is T1, human Jak2 (a.a. 828-1132) catalytic domain (Homo sapiens, UniProt O60674).
T1 construct: Jak2 (a.a. 828-1132); His tag (N); made in house; host or cells: insect cells (baculovirus)
The experiment in a line: In vitro JAK kinase assay (HTRF), JAK2. Particulars: 30 μM ATP; ranges = lowest and highest values of the stereoisomers tested; read-out: JAK 2 IC50. It is filed as biochemical. A general note: Time-resolved FRET reads energy transfer from a long-lived donor to a nearby acceptor.

Data set [3] addresses human JAK1 (a.a. 837-1142) catalytic domain (Homo sapiens, UniProt P23458). The experiment in a line: In vitro JAK kinase assay (HTRF), JAK1.
Data set [4] addresses human Jak3 (a.a. 781-1124) catalytic domain (Homo sapiens, UniProt P52333). The experiment in a line: In vitro JAK kinase assay (HTRF), JAK3.

T1 sequence (O60674 828-1132): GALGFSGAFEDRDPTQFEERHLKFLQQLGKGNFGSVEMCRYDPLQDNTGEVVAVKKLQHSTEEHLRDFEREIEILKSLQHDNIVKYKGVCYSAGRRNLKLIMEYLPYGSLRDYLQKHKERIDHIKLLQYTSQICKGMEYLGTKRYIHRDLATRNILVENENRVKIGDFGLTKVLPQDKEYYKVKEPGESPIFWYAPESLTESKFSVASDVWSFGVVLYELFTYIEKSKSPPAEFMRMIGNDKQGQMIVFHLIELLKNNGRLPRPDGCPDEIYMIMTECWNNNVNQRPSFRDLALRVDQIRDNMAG
Chain of human Jak3 (a.a. 781-1124) catalytic domain (P52333 781-1124): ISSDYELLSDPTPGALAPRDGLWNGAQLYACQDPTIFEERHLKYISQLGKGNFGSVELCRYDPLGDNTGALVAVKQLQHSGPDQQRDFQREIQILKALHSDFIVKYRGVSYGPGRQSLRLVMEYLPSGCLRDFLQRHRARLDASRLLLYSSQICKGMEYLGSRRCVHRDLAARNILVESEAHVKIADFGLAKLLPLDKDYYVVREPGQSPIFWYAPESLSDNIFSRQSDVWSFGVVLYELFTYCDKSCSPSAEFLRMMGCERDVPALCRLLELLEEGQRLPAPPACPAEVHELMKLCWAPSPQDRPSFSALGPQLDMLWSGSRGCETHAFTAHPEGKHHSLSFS
Chain of human JAK1 (a.a. 837-1142) catalytic domain (P23458 849-1154): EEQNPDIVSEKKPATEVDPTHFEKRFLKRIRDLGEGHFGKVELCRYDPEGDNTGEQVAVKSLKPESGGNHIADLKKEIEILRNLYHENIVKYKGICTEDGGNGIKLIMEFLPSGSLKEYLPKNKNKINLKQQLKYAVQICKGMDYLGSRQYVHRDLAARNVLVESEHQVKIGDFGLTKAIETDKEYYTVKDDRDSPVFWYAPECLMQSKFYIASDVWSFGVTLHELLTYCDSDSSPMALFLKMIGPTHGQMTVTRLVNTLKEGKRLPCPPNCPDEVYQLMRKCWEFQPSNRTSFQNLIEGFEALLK

`N#CC[C@H](C1CCCC1)n1cc(-c2ncnc3[nH]ccc23)cn1` [Compound 1, (R)-3-(4-(7H-pyrrolo[2,3-d]pyrimidin-4-yl)-1H-pyrazol-1-yl)-3-cyclopentylpropanenitrile, reference compound]: the CLint scaled at 1 μM in data set [1] is 11.3 mL/min/kg.
In general, IC50 refers to the concentration that gives 50% inhibition. As to `N#CCC(C1CCC(O)C1)n1cc(-c2ncnc3[nH]ccc23)cn1` (stereo not shown) [Metabolite 1, 3-(4-(7H-pyrrolo[2,3-d]pyrimidin-4-yl)-1H-pyrazol-1-yl)-3-(3-hydroxycyclopentyl)propanenitrile], the IC50 in data set [2] was in the range of 0.7 to 2.5 nM; in data set [3], 2.5 to 12 nM; in data set [4], 8.3 to 45 nM. Moreover, the CLint scaled at 1 μM in data set [1] was below 8.33 mL/min/kg.
On the same counts, the results for `N#CCC(C1CCCC1O)n1cc(-c2ncnc3[nH]ccc23)cn1` (stereo not shown) [Metabolite 2, 3-(4-(7H-pyrrolo[2,3-d]pyrimidin-4-yl)-1H-pyrazol-1-yl)-3-(2-hydroxycyclopentyl)propanenitrile] are 2 to 2.8 nM, 3 to 15 nM, 17 to 30 nM and below 8.33 mL/min/kg.
In the same order, the values of `N#CCC(C1CCC(=O)C1)n1cc(-c2ncnc3[nH]ccc23)cn1` (stereo not shown) [Metabolite 3, 3-(4-(7H-pyrrolo[2,3-d]pyrimidin-4-yl)-1H-pyrazol-1-yl)-3-(3-oxycyclopentyl)propanenitrile] are 2.1 to 5.9 nM, 2.7 to 12 nM, 11 to 41 nM and below 9.5 mL/min/kg.
